Measured values: US10144952B2, “Stabilization and isolation of extracellular nucleic acids” (QIAGEN GmbH, priority 2013, dated 2018)
Structures can show the parent of a compound that is named as a salt. Where a SMILES comes first, the peptide text is derived from it. The star is where a group is joined. Cbz = O=C(OCc1ccccc1)*; CH2F = FC*

Assays:
[1] = tested on: Bid-induced cyctochrome c release from HeLa cell mitochondria; settings: at 5 μM; cited from earlier work
calpain II = target: T1, calpain II (Homo sapiens, UniProt P17655); settings: irreversible inhibitor; cited from earlier work
T1 sequence (P17655 1-700): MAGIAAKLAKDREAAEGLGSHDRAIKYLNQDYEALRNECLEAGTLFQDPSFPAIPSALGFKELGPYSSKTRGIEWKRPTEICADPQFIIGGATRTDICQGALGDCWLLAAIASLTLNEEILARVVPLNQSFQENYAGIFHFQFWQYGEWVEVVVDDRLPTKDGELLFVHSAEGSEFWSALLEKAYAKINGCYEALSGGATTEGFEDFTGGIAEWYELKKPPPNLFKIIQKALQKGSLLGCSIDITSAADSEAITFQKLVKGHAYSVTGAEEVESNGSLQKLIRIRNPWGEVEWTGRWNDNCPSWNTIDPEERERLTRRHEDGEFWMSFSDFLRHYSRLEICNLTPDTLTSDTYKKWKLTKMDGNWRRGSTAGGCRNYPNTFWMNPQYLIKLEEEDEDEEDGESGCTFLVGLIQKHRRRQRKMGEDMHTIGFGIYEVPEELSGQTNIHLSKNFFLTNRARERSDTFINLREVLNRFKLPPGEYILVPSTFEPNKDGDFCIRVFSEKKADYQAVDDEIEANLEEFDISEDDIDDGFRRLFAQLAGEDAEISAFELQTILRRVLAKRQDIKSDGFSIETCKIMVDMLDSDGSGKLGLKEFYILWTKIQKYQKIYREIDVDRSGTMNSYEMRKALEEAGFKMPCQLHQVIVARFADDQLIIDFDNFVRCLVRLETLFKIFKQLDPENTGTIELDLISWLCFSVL
T1 sequence (P04632 1-268 partner): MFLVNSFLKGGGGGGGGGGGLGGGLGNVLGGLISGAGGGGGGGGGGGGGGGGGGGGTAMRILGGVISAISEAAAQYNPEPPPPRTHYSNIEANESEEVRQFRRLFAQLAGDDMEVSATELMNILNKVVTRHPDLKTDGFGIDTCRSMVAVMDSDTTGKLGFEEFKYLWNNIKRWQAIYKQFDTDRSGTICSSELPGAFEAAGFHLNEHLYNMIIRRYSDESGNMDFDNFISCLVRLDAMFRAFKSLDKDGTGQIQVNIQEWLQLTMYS

cathepsin L = cathepsin L (Homo sapiens, UniProt P07711); settings: cited from earlier work
[2] = tested on: transcriptional activation of COX-2; settings: cited from earlier work
[3] = tested on: etoposide-induced cortical neuron death; settings: cited from earlier work
[4] = cited from earlier work; for t1/2: buffer
[5] = tested on: release of genomic DNA from white blood cells in whole blood (18S ribosomal DNA 66 bp and 500 bp amplicons); assay: 18S rDNA qPCR: increase of DNA in plasma of stored whole blood; assay type: cell-based, human; settings: for increase of 18S DNA from day 0: Example 5, 2.1, 20 μM, within 7 days of storage at RT; for released DNA / stabilization capability: 3 and 6 days at room temperature
Text: Detection of ribosomal 18S DNA by quantitative real-time PCR, makes it possible to calculate the x-fold increase of DNA from day 0 to day 3 or 7 (calculation: division of day 3 (or 7) copies by day 0 copies).

[6] = tested on: ladder-like pattern of genomic DNA fragments (apoptosis) in whole blood; assay: chip gel electrophoresis of circulating cell-free DNA; assay type: cell-based; settings: 20 μM in whole blood; day 3 and day 7
Experimental: 1.3.1 Measurement of the blood cell stability/DNA release by the determination of DNA size distribution using a chip gel electrophoresis (2100 Bioanalyzer; Agilent Technologies; Inc., USA) according to manufacturer's instruction (see handbook Agilent DNA 7500 and DNA 12000 Kit Guide), but 1.5 μl instead of 1 μl sample were transferred to the wells.
Each tested caspase inhibitor was added to whole blood samples (20 μM end concentration in 10 ml blood; blood was collected into Vacutainer K2E Tubes; BD). The whole blood sample was processed as described in section 1 (plasma preparation and nucleic acid isolation).
The eluted circulating cell-free DNA was separated by size using chip gel electrophoresis (for details on the method see above). […] The DMSO control and the K2E blood (not treated according to the teachings of the present invention) show the same ladder-like pattern of bands. This pattern occurs in samples where apoptosis takes place. During apoptosis, endonucleases degrade genomic DNA at inter-nucleosomal linker regions and produce DNA fragments of circa 180 bp or multiples of 180 bp. Thus, apoptosis occurs in samples which show a clear ladder-like pattern. Furthermore, the strength (darkness) of the pattern is decisive. The darker the bands, the more genomic DNA was released from the cells and thus contaminates the extracellular nucleic acid population.

cells = settings: cited from earlier work
[7] = tested on: myocardial infarct size during reperfusion; settings: cited from earlier work

Chain of cathepsin L (P07711 114-333, species assumed): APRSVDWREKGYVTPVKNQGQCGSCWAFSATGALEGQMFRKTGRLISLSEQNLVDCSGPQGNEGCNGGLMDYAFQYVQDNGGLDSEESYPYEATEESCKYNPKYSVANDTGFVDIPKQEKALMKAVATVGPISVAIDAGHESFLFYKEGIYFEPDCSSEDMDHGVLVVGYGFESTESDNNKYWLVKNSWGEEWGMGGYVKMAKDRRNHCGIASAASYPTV

In the case of OC(CN1CCNCC1)Cn1c2ccc(Br)cc2c2cc(Br)ccc21 (racemic) [Bax Channel Blocker, (±)-1-(3,6-Dibromocarbazol-9-yl)-3-piperazin-1-yl-propan-2-ol,bis TFA], the “inhibition of Bid-induced cytochrome c release” value [1] is listed as “cyctochrome c release from HeLa cell mitochondria (~80%”.
For CC(C)C[C@H](NC(=O)OCc1ccccc1)C(=O)N[C@@H](CC(C)C)C(=O)N[C@@H](Cc1ccc(O)cc1)C(=O)CF [Calpain Inhibitor IV, Z-Leu-Leu-Tyr-CH2F] (HELM PEPTIDE1{[O=C(OCc1ccccc1)[*:2]].L.L.Y.[FC[*:1]]}$$$$V2.0), the “k2 calpain II” value (calpain II) is given as 28,900 M-1s-1). Also acts as an inhibitor of cathepsin L (k2 = and the “k2 cathepsin L” value (cathepsin L) is given as 680,000 M-1s-1).
For O=c1c(O)c(-c2ccc(O)cc2)oc2cc(O)cc(O)c12 [Kaempferol], the IC50 [2] is listed as less than 15 µM.
For O=[N+]([O-])c1ccc(-c2cn3c4c(sc3n2)CCCC4)cc1 [Pifithrin-α, p-Nitro, Cyclic], the “fold higher potency than Pifithrin-α” value [3] is listed as “A cell-permeable p53 inhibitor that exhibits 10-fold higher potency”, the t1/2 [4] is listed as 6 h and the “longer half-life than Pifithrin-α” value ([4]; neuron culture medium at 37° C.) is listed as 50%.
For N=c1sc2c(n1CC(=O)c1ccc([N+](=O)[O-])cc1)CCCC2 [Pifithrin-α, p-Nitro], the t1/2 [4] is listed as “biological systems (t1/2 = 8h in neuron culture medium at 37° C.)”.
For CC(C)C(NC(=O)c1ccc2ccccc2n1)C(=O)NC(CC(=O)O)C(=O)COc1c(F)cccc1F (stereo not drawn) [Q-VD-OPh, Quinoline-Val-Asp-CH2-OPH], the “increase of 18S DNA from day 0” value [5] is listed as “reduced increase of DNA”, the “ladder-like pattern of cell-free DNA” value [6] is listed as “significantly reduced ladder-like patterns” and the toxicity to cells (cells) is listed as “not toxic to cells even at extremely high concentrations”.
In the case of COC(=O)C[C@H](NC(=O)[C@H](C)NC(=O)[C@@H](NC(=O)OCc1ccccc1)C(C)C)C(=O)CF [Z-Val-Ala-Asp(OMe)-FMK] (Cbz-Val-Ala-Asp(OMe)-CH2F), the “increase of 18S DNA from day 0” value [5] is reported as “more prominent on day 7” and the “ladder-like pattern of cell-free DNA” value [6] is reported as “reduced ladder-like pattern”.
With CCCC(N)=O [butanamide] the “released DNA / stabilization capability” value ([5]; Example 2, 2.5, 3 or 3.5% butanamide or 5% DMAA with 1 μM caspase inhibitor and EDTA) was “at least comparable stabilization capabilities to DMAA”, the “released DNA / stabilization capability” value ([5]; Example 3, butanamide 0.5-2% with DMPA 2.5-1%, 1 μM caspase inhibitor, EDTA) was “comparable stabilization capabilities” and the “increase in 18S rDNA” value ([5]; Example 4, 0.5, 1.5 and 2.5% (w/v) butanamide with 1 μM caspase inhibitor and EDTA) was “significantly reduced increase in 18S rDNA”.
For “Ac-Leu-Glu-His-Asp-CMK (LEHD; HELM PEPTIDE1{[ac].L.E.H.D.[ClC[*:1]]}$$$$V2.0; SMILES CC(=O)N[C@@H](CC(C)C)C(=O)N[C@@H](CCC(=O)O)C(=O)N[C@@H](Cc1c[nH]cn1)C(=O)N[C@@H](CC(=O)O)C(=O)CCl) [Caspase-9 Inhibitor III]”, the “concentration reported to reduce myocardial infarct size” value [7] is listed as “myocardial infarct size during reperfusion (~70 nM)”.
